Data from ChEMBL document CHEMBL4014265, “Crassins A-H, Diterpenoids from the Roots of Croton crassifolius” (J Nat Prod, 2017).
pIC50: −log10 of the molar value.

Experiments:
HL-60 [1] = assay: Cytotoxicity against human HL60 cells assessed as growth inhibition at 20 uM after 72 hrs by MTT assay relative to control; assay type: functional; conditions: HL-60, 72 h, read-out: GI
A549 [2] = assay: Cytotoxicity against human A549 cells assessed as growth inhibition at 20 uM after 72 hrs by SRB assay relative to control; assay type: functional; conditions: A549, 72 h, read-out: GI
HL-60 [3] = assay: Cytotoxicity against human HL60 cells assessed as growth inhibition after 72 hrs by MTT assay; assay type: functional, cell-based; conditions: HL-60, 72 h
A549 [4] = assay: Cytotoxicity against human A549 cells assessed as growth inhibition after 72 hrs by SRB assay; assay type: functional, cell-based; conditions: A549, 72 h

| Compound | inhibition of growth at 20 µM (HL-60 [1]) [%] | inhibition of growth at 20 µM (A549 [2]) [%] | pIC50 (HL-60 [3]) | pIC50 (A549 [4]) |
| --- | --- | --- | --- | --- |
| COC(=O)[C@]1(C)CCCC2=C1CC[C@@H](C)[C@]2(C)CCC1=CC(=O)O[C@H]1O | > 50 | > 50 | 4.93 | 5.28 |
| COC(=O)[C@@]1(C)CC(=O)C2=C(c3ccoc3)C[C@]3(C)C2=C1CC[C@H]3C | > 50 | > 50 | 4.98 | 5.08 |
